Experimental data reported in PMC7659962, “Essential Oils from Monarda fistulosa: Chemical Composition and Activation of Transient Receptor Potential A1 (TRPA1) Channels” (Molecules, 2020).

What follows are compounds tested against T1, rTRPA1 (Rattus norvegicus, UniProt Q6RI86) (assay: Fura-2 calcium imaging in stably transfected HEK […] cells). Details: 100 µM; agonist; HBSS pH […]; […] ratio change from baseline; blocked by HC-030031; nontransfected HEK cells as control.
T1 construct: gene Trpa1
Format: cell-based

T1 sequence (Q6RI86 whole entry): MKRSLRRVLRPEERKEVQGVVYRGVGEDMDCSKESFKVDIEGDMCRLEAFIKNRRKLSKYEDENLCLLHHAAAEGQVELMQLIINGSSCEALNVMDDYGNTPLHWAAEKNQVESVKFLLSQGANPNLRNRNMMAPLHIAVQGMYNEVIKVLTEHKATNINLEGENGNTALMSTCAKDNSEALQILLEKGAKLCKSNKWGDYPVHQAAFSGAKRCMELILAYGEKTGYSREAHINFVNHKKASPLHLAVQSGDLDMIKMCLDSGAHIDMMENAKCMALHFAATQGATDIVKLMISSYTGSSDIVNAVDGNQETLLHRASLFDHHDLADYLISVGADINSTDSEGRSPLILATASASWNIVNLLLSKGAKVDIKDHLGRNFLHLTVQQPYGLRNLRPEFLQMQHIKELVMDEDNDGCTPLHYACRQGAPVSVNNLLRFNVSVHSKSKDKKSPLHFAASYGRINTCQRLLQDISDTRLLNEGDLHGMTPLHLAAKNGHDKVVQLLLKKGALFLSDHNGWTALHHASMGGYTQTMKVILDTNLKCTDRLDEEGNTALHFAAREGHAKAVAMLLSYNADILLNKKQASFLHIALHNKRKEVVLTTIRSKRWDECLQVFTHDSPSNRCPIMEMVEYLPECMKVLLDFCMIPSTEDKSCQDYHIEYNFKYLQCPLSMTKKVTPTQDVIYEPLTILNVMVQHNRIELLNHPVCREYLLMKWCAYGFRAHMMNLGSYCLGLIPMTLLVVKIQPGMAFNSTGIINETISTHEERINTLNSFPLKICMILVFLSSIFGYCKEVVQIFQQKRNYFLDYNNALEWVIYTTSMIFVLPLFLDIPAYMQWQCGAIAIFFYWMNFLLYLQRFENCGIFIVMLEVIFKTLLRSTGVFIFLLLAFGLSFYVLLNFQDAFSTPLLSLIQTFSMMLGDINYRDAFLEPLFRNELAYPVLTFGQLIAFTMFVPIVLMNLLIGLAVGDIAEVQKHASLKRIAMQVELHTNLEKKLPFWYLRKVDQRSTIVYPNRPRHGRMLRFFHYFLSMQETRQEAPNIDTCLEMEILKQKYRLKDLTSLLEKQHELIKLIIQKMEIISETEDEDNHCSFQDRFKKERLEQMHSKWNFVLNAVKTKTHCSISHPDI

Structure (SMILES) | HEK Cells / rTRPA1 / [Ca^2+]i Change
Cc1ccc(C(C)C)cc1O [Carvacrol] | 0.340 ± 0.012
Cc1ccc(C(C)C)c(O)c1 [Thymol] | 0.849 ± 0.013
C=CC(=C)CCC=C(C)C [β-Myrcene] | 0.111 ± 0.003
